# Legend:
# Experiment in all cases: relative viability (nuclei count vs DMSO), 5 days (fraction); higher = more cells survive
# [1] = compound: C[C@@]1(C(=O)Nc2ccc(F)nc2)CCCN1c1nc(Nc2cc(C3CC3)n[nH]2)c2cccn2n1 + N=C(N)NC(=N)NCCc1ccccc1 [Phenformin] (partner 250 µM)
# In short: (§1)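 Lung cancer cell lines, seeded in 1536-well plates, were treated the following day by pin tool with a single drug or with five library-drug doses (not always all listed) in √10 steps on top of a fixed anchor-drug dose. Cells were fixed and nuclei stained in one step after 5 days, and nuclei were counted. Relative viability is the nuclei count for treated wells divided by that for vehicle wells, reported as medians of duplicate plates.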
# Motesanib + Pemetrexed = compound: CC1(C)CNc2cc(NC(=O)c3cccnc3NCc3ccncc3)ccc21 [Motesanib] + Nc1nc2[nH]cc(CCc3ccc(C(=O)N[C@@H](CCC(=O)O)C(=O)O)cc3)c2c(=O)[nH]1 [Pemetrexed] (partner 0.2 µM)
# In short: as §1
# Motesanib + Navitoclax = compound: CC1(C)CNc2cc(NC(=O)c3cccnc3NCc3ccncc3)ccc21 [Motesanib] + CC1(C)CCC(c2ccc(Cl)cc2)=C(CN2CCN(c3ccc(C(=O)NS(=O)(=O)c4ccc(N[C@H](CCN5CCOCC5)CSc5ccccc5)c(S(=O)(=O)C(F)(F)F)c4)cc3)CC2)C1 [Navitoclax] (partner 0.5 µM)
# In short: as §1
# Motesanib + Bortezomib = compound: CC1(C)CNc2cc(NC(=O)c3cccnc3NCc3ccncc3)ccc21 [Motesanib] + CC(C)C[C@H](NC(=O)[C@H](Cc1ccccc1)NC(=O)c1cnccn1)B(O)O [Bortezomib] (partner 0.002 µM)
# In short: as §1
Cell Line,relative viability ([1]; first compound 0.04 µM),relative viability ([1]; first compound 0.1265 µM),relative viability ([1]; first compound 0.4 µM),relative viability ([1]; first compound 1.265 µM),relative viability (Motesanib + Pemetrexed; first compound 0.01 µM),relative viability (Motesanib + Pemetrexed; first compound 0.03162 µM),relative viability (Motesanib + Pemetrexed; first compound 0.1 µM),relative viability (Motesanib + Pemetrexed; first compound 0.3162 µM),relative viability (Motesanib + Pemetrexed; first compound 1 µM),relative viability (Motesanib + Navitoclax; first compound 0.01 µM),relative viability (Motesanib + Navitoclax; first compound 0.03162 µM),relative viability (Motesanib + Navitoclax; first compound 0.1 µM),relative viability (Motesanib + Navitoclax; first compound 0.3162 µM),relative viability (Motesanib + Navitoclax; first compound 1 µM),relative viability (Motesanib + Bortezomib; first compound 0.01 µM),relative viability (Motesanib + Bortezomib; first compound 0.03162 µM),relative viability (Motesanib + Bortezomib; first compound 0.1 µM),relative viability (Motesanib + Bortezomib; first compound 0.3162 µM),relative viability (Motesanib + Bortezomib; first compound 1 µM)
HCC-366,0.66,0.54,0.596,0.186,0.189,0.154,0.18,0.147,0.143,0.917,0.975,0.972,0.998,1.19,1.06,1,1.06,0.997,1.09
HCC-827,0.431,0.402,0.371,0.443,0.252,0.301,0.271,0.277,0.29,1.11,1.01,1.07,1.05,1.02,0.962,1.1,1.07,1.03,1.15
HOP-62,0.672,0.598,0.635,0.762,0.288,0.296,0.214,0.209,0.173,1.12,0.939,1.07,1.15,1.26,0.862,0.791,0.735,0.802,0.907
IA-LM,,,,,,,,,,0.803,0.827,0.737,0.673,0.631,0.879,0.704,0.816,0.819,0.783
LC-2-ad,0.484,0.388,0.369,0.257,0.289,0.259,0.268,0.262,0.256,0.405,0.381,0.522,0.402,0.4,1.02,1.03,1.04,1.14,0.942
LCLC-103H,0.343,0.309,0.253,0.28,0.458,0.435,0.429,0.505,0.458,,,,,,,1.02,1.16,1.03,1.07
LK-2,0.251,0.178,0.166,0.202,0.234,0.288,0.208,0.256,0.171,0.915,0.877,0.811,0.911,0.894,,,,,
NCI-H358,0.212,0.144,0.113,0.115,0.161,0.162,0.169,0.164,0.166,,,,,,,,,,
NCI-H522,0.557,0.633,0.59,0.56,1.01,1.05,0.955,0.844,1.03,,,,,,,,,,
NCI-H650,0.452,0.405,0.406,0.316,0.853,0.942,0.803,0.956,0.859,,,,,,0.805,0.954,0.83,1.02,0.647
NCI-H661,0.245,0.235,0.233,0.229,0.862,0.925,0.887,0.986,0.961,,,,,,0.795,0.767,0.765,0.849,1.04
NCI-H727,0.402,0.247,0.266,0.322,,,,,,0.519,0.349,0.321,0.52,0.446,0.735,0.926,0.883,0.919,0.818
NCI-H1299,,,,,,,,,,1.06,1.04,1.06,1.11,1.07,1.02,1.02,1.04,1.01,1.05
NCI-H1395,0.428,0.42,0.5,0.481,0.923,0.815,0.826,0.881,0.765,1.22,1.06,1.27,1.17,1.27,,,,,
NCI-H1563,0.64,0.671,0.605,0.626,0.679,0.82,0.871,0.644,0.794,,,,,,0.934,0.812,0.956,0.882,0.904
NCI-H1623,0.563,0.462,0.449,0.477,,,,,,,,,,,,,,,
NCI-H1648,,,,,0.707,,,0.674,0.547,,,,,,,,,,
NCI-H1703,,,,,,,,,,1.25,1.05,0.494,0.299,0.27,0.25,0.264,0.228,0.192,0.265
NCI-H1793,0.322,0.286,,0.306,0.862,0.894,0.843,0.856,0.853,0.594,0.445,0.41,0.583,0.33,,,,,
NCI-H1944,0.169,0.153,0.136,0.133,0.58,0.628,0.565,0.554,0.442,1.06,1.03,1.07,1.04,1.15,,,,,
NCI-H2170,0.432,0.396,0.419,0.357,0.258,0.255,0.257,0.269,0.253,0.574,0.773,0.545,0.676,0.537,,,,,
NCI-H2342,0.574,0.43,0.46,0.44,0.8,0.748,0.795,0.794,0.912,,,,,,,,,,
SK-MES-1,0.699,0.632,0.559,0.635,0.912,0.953,1.03,0.943,1.02,1.13,1.15,1.23,1.24,1.21,,,,,
SW 900,0.566,0.544,0.596,0.461,0.459,0.416,0.356,0.301,0.303,,,,,,,,,,
